Experimental data taken from patent US9980943B2, “Methods of treating muscular dystrophy” (BOARD OF REGENTS OF THE NEVADA SYSTEM OF HIGHER EDUCATION, …, priority 2013, dated 2018).

Key:
Assay type in all cases: cell-based, mouse
[1] = tested on: β-galactosidase in CMV-LacZ C2C12 myoblasts; assay: CMV-LacZ secondary screen in C2C12 myoblasts (β-Gal stabilizing assay); settings: CMV-LacZ C2C12 myoblasts
Method in brief: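 C2C12 myoblasts stably carrying a linearized CMV-driven LacZ construct, clone chosen by β-gal level in the myoblast FDG assay. Compounds tested in 96-well dose-response at 0.5, 1, 5, 10, 20 and 40 μM, N=2 replicates per point, to detect β-gal stabilization.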

[2] = tested on: α7 integrin (LacZ reporter in α7+/LacZ myotubes); assay: Myotube α7 integrin FDG assay (Burkin assay in myotubes, 96-well); settings: myotubes
[3] = tested on: β-galactosidase in CMV-LacZ C2C12 myotubes; assay: CMV-LacZ secondary screen in C2C12 myotubes (β-Gal stabilizing assay); settings: C2C12 CMV-LacZ myotubes, fold relative to DMSO
Method in brief: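 First, C2C12 myoblasts were transfected with a linearized CMV-LACZ vector and clonal lines selected by FDG β-gal assay. Then cells were exposed to compounds at 0.5, 1, 5, 10, 20 and 40 μM in 96-well format, two replicates each, and β-gal measured.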

[4] = tested on: α7 integrin (LacZ reporter in α7βgal+/− myoblasts); assay: Myoblast α7+/LacZ integrin FDG assay (Burkin assay in myoblasts, 96-well); settings: α7+/LacZ myoblasts, 96-well

| Compound | CMV-LACZ in Myoblasts (β-galactosidase activity relative to DMSO) ([1]; 0.5 uM) | CMV-LACZ in Myoblasts (β-galactosidase activity relative to DMSO) ([1]; 1 uM) | CMV-LACZ in Myoblasts (β-galactosidase activity relative to DMSO) ([1]; 5 uM) | CMV-LACZ in Myoblasts (β-galactosidase activity relative to DMSO) ([1]; 10 uM) | CMV-LACZ in Myoblasts (β-galactosidase activity relative to DMSO) ([1]; 20 uM) | CMV-LACZ in Myoblasts (β-galactosidase activity relative to DMSO) ([1]; 40 uM) | Burkin Assay in Myotubes, α7 integrin LacZ reporter signal relative to DMSO ([2]; 0.5 uM) | Burkin Assay in Myotubes, α7 integrin LacZ reporter signal relative to DMSO ([2]; 1 uM) | Burkin Assay in Myotubes, α7 integrin LacZ reporter signal relative to DMSO ([2]; 5 uM) | Burkin Assay in Myotubes, α7 integrin LacZ reporter signal relative to DMSO ([2]; 10 uM) | Burkin Assay in Myotubes, α7 integrin LacZ reporter signal relative to DMSO ([2]; 20 uM) | Burkin Assay in Myotubes, α7 integrin LacZ reporter signal relative to DMSO ([2]; 40 uM) | CMV-LACZ in Myotubes, signal relative to DMSO ([3]; 0.5 uM) | CMV-LACZ in Myotubes, signal relative to DMSO ([3]; 1 uM) | CMV-LACZ in Myotubes, signal relative to DMSO ([3]; 5 uM) | CMV-LACZ in Myotubes, signal relative to DMSO ([3]; 10 uM) | CMV-LACZ in Myotubes, signal relative to DMSO ([3]; 20 uM) | CMV-LACZ in Myotubes, signal relative to DMSO ([3]; 40 uM) | Burkin Assay in Myoblasts, signal relative to DMSO ([4]; 0.5 uM) | Burkin Assay in Myoblasts, signal relative to DMSO ([4]; 1 uM) | further results |
| --- | --- | --- | --- | --- | --- | --- | --- | --- | --- | --- | --- | --- | --- | --- | --- | --- | --- | --- | --- | --- | --- |
| CN(CCC1CCCCO1)C(=O)CCc1nnc(CCCCc2ccccc2)o1 (stereo not drawn) [MLS000735021-01] | 0.8683 | 1.1646 | 0.9756 | 0.9907 | 1.2130 | 0.9767 | 1.013 | 1.009 | 0.9137 | 1.006 | 0.8444 | 0.8523 | 1.0105 | 1.0221 | 0.9548 | 0.9616 | 1.0378 | 1.0778 | 0.9402 | 0.9246 | Burkin Assay in Myoblasts, signal relative to DMSO ([4]; 5 uM): 0.9982; Burkin Assay in Myoblasts, signal relative to DMSO ([4]; 10 uM): 0.9765; Burkin Assay in Myoblasts, signal relative to DMSO ([4]; 20 uM): 1.025; Burkin Assay in Myoblasts, signal relative to DMSO ([4]; 40 uM): 0.9941 |
| COc1ccc(N=Nc2ccc(N)nc2N)cc1 [MLS000736846-01] | 1.1009 | 1.0386 | 1.0269 | 1.1101 | 1.3459 | 1.0174 | 1.131 | 1.144 | 1.004 | 0.9396 | 0.8776 | 0.9673 | 0.8438 | 0.9714 | 1.0250 | 1.1737 | 1.1000 | 1.2788 | 1.218 | 1.2858 | Burkin Assay in Myoblasts, signal relative to DMSO ([4]; 5 uM): 1.07; Burkin Assay in Myoblasts, signal relative to DMSO ([4]; 10 uM): 1.012; Burkin Assay in Myoblasts, signal relative to DMSO ([4]; 20 uM): 1.0406; Burkin Assay in Myoblasts, signal relative to DMSO ([4]; 40 uM): 0.9563 |
| O=c1[nH]c(SCc2ccc(Cl)cc2)nc2ccsc12 [MLS000755214-01] | 1.0190 | 1.1650 | 0.9281 | 1.0994 | 1.0835 | 0.8172 | 1.01 | 0.9661 | 0.9321 | 1.0353 | 0.9655 | 0.8312 | 0.9543 | 0.8600 | 1.0763 | 1.0591 | 0.9280 | 1.0190 | 1.077 | 1.021 | Burkin Assay in Myoblasts, signal relative to DMSO ([4]; 5 uM): 0.9757; Burkin Assay in Myoblasts, signal relative to DMSO ([4]; 10 uM): 0.9635; Burkin Assay in Myoblasts, signal relative to DMSO ([4]; 20 uM): 0.8448; Burkin Assay in Myoblasts, signal relative to DMSO ([4]; 40 uM): 0.861 |
